Experiments:
[1] = test system: dendritic cells in draining inguinal lymph nodes; experiment: Antigen-bearing dendritic cells in lymph nodes after ultrasound application of soluble peptide followed by migration inducer; assay type: in vivo, C57BL/6 mice
Experimental: FIG. 9 illustrates the effect of delivering a peptide antigen ([…]) into the skin via ultrasound, followed by topical application of dibutyl phthalate and acetone to maximize the induction of dendritic cell migration and maturation. […] (240 μg) in DMSO, or DMSO alone, was applied to the shaved abdominal skin of C57BL/6 mice and covered with a hydrogel, into which was inserted a 13 mm diameter ultrasound transducer. Ultrasound was applied at 20 kHz and 1.6 W/cm^2, in 1 second pulses every 2 seconds for 6 minutes, for a total ultrasound dose of 288 J/cm^2. Two hours later, a 50:50 v/v solution of acetone and dibutyl phthalate was applied topically to the same area. Two days later, the skin draining inguinal lymph nodes were removed and the cells analyzed by immunofluorescent flow cytometry.
The antigen-bearing dendritic cells that had migrated to the draining lymph node are shown in the upper right quadrant of each dot plot. The dendritic cells in the lymph node were identified by their characteristic light scatter properties and exceptionally high surface expression of MHC class II (FL1), while the antigenic epitope was detected using the K^b:[…]-specific mAb 25-D1.16 (FL2), as described above.
(§1) As stated previously, whether mature antigen-bearing dendritic cells will be encountered by and activate naive T cells in the lymph node is likely to depend not only on the number of antigen-bearing dendritic cells that enter the node, but also on the density of MHC:peptide complexes expressed on their membranes. To estimate the density of peptide:MHC complexes on the immigrant dendritic cells generated by this procedure, we compared the fluorescence intensity of various cell populations detected by the peptide:MHC-specific mAb, 25-D1.16, using identical staining conditions and flow cytometer settings. The results are shown in Table IV, providing the number of specific peptide:MHC complexes expressed on the plasma membrane of dendritic cells after various treatments in vitro or in vivo.

MHC class I molecule K^b = molecular target: T1, MHC class I molecule K^b (Mus musculus, UniProt P01901); experiment: […]:K^b complexes on primary epidermal Langerhans cells in vitro (mAb 25-D1.16 flow cytometry); assay type: cell-based, C57BL/6 mice; details: 1.5 hrs
T1 construct: endogenous in cells; host or cells: primary epidermal Langerhans cells from C57BL/6 dorsal ear skin explants
T1 sequence (P01901 22-369): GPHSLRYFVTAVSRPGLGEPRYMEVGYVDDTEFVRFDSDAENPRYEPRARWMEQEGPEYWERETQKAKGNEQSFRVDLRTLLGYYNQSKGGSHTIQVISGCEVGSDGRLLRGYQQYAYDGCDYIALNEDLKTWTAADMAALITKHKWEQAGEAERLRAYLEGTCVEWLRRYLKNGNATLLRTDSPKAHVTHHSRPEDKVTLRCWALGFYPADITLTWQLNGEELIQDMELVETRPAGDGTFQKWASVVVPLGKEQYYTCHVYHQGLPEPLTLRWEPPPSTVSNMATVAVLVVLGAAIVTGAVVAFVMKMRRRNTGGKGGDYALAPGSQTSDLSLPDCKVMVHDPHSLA
T1 sequence (P01887 21-119 partner): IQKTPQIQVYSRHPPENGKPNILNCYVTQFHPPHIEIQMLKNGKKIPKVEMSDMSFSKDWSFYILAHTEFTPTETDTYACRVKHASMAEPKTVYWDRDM
Excerpt: To evaluate the immunogenic potential of various vaccine formulations and delivery methods, an antigen system that permits quantitative determination of the number of specific peptide:MHC complexes expressed on the cell membrane was used. To date, the only direct way to quantitate antigenic epitopes expressed on living cells and recognized by T cells is with the use of monoclonal antibodies (mAbs) specific for individual peptide:MHC complexes. Chicken ovalbumin (OVA) is a 40 kDa protein that has been used for many years as a prototypic experimental antigen for immunologic studies. The OVA257-264 peptide, […] (963 Da), is processed and presented in the peptide-binding groove of the MHC class I molecule K^b. The mAb, 25-D1.16, has specificity for the […]:K^b complex (Porgador et al. 1997 Immunity 6:715–726).
Primary epidermal Langerhans cells were obtained from cultured explants of C57BL/6 dorsal ear skin according to the method of Ortner et al. (Ortner et al. 1996 J. Immunol. Meth. 193:71). Over a period of 72 hrs in culture, Langerhans cells mature and migrate out of the explant, dropping onto the bottom of the culture dish. These cells were harvested and incubated for 1.5 hrs at 37° C. with various concentrations of synthetic […] peptide. The cells were then washed and stained with a FITC-conjugated anti-MHC class II (I-A^b) mAb, as well as with affinity purified and biotinylated 25-D1.16 followed by PE-avidin, and analyzed on a FACScan® flow cytometer. Non-specific binding of immunoglobulin proteins was blocked by pre-incubation and staining of the cells in a mixture of isotype control mAbs (rat IgG2a, rat IgG2b, mouse IgG1 and mouse IgG2a, each at 100–200 μg/ml) and the anti-Fc receptor mAb 2.4G2. Langerhans cells were identified by their characteristic light scatter properties (high forward, moderate side scatter) and exceptionally high levels of MHC class II expression, with the latter used to optimize the light scatter gate for each experiment. Dead cells were excluded from analysis by their uptake of 7AAD (7-amino-actinomycin D).
Each data point represents the mean and S.E. of 3 to 5 independent experiments. […]
as §1

[2] = test system: dendritic cells in draining lymph node; experiment: Antigen-bearing dendritic cells in lymph nodes after injection of soluble protein or peptide with or without topical migration inducer; assay type: in vivo, mice
Experimental: The injections were followed 2 hours later by topical application of dibutyl phthalate and acetone to the abdominal skin. The antigen-bearing dendritic cells that had migrated to the draining lymph node two days later were analyzed as described above and are shown in the upper right quadrant of each dot plot.
This was followed 2 hrs later by: A) no further treatment, or B) topical application of dibutyl phthalate and acetone to the abdominal skin. The antigen-bearing dendritic cells that had migrated to the draining lymph node two days later are shown in the upper right quadrant of each dot plot.
As stated previously, whether mature antigen-bearing dendritic cells will be encountered by and activate naive T cells in the lymph node is likely to depend not only on the number of antigen-bearing dendritic cells that enter the node, but also on the density of MHC:peptide complexes expressed on their membranes.

[3] = 240 μg in DMSO, ultrasound 20 kHz, acetone/dibutyl phthalate 2 hours later, nodes two days later
[4] = immigrant Langerhans cells from inguinal lymph nodes 48 hrs after 240 μg SIINFEKL by ultrasound
[5] = 144 μg in 150 μl HBSS injected, no further treatment, two days later
[6] = 144 μg injected, topical dibutyl phthalate and acetone 2 hrs later, two days later
[7] = 20 μl of 0.5 mM in HBSS injected, dibutyl phthalate and acetone 2 hours later, two days later
[8] = immigrant Langerhans cells from inguinal lymph nodes 48 hrs after 4.8 μg SIINFEKL injected

Sequence: SIINFEKL [eight amino acid peptide OVA257-264 of chicken ovalbumin, tumor-associated peptide antigen presented by K^b]
- Dendritic Cells per Lymph Node [1, 3]: 51,968
- K^b:SIINFEKL^+ DC per LymphNode [1, 3]: 13,216
- Total Cells per Lymph Node [1, 3]: 5.6 × 10^6
- Enhancement ([1]; K^b:SIINFEKL+ DC versus DMSO alone): 5×
- Median No. of Complexes/Cell [1, 4]: 633 complexes/cell
- Median Specific Fl. Intensity [1, 4]: 32
- cells reactive with mAb 25-D1.16 relative to absence of SIINFEKL ([1]; ultrasound-mediated topical exposure to SIINFEKL): five times
- Median No. of Complexes/Cell (MHC class I molecule K^b; 0.1 nM SIINFEKL in vitro): 240 complexes/cell
- Median Specific Fl. Intensity (MHC class I molecule K^b; 0.1 nM SIINFEKL in vitro): 12
- Median No. of Complexes/Cell (MHC class I molecule K^b; 1.0 nM SIINFEKL in vitro): 1,600 complexes/cell
- Median Specific Fl. Intensity (MHC class I molecule K^b; 1.0 nM SIINFEKL in vitro): 80
- Median No. of Complexes/Cell (MHC class I molecule K^b; 10 nM SIINFEKL in vitro): 4,180 complexes/cell
- Median Specific Fl. Intensity (MHC class I molecule K^b; 10 nM SIINFEKL in vitro): 209
- Median No. of Complexes/Cell (MHC class I molecule K^b; 100 nM SIINFEKL in vitro): 11,160 complexes/cell
- Median Specific Fl. Intensity (MHC class I molecule K^b; 100 nM SIINFEKL in vitro): 558
- Median No. of Complexes/Cell (MHC class I molecule K^b; 1 μM SIINFEKL in vitro): 15,200 complexes/cell
- Median Specific Fl. Intensity (MHC class I molecule K^b; 1 μM SIINFEKL in vitro): 760
- Dendritic Cells per Lymph Node [2, 5]: 3,024
- K^b:SIINFEKL^+ DC per LymphNode [2, 5]: 504
- Total Cells per Lymph Node [2, 5]: 6.3 × 10^6
- Dendritic Cells per Lymph Node [2, 6]: 55,912
- K^b:SIINFEKL^+ DC per LymphNode [2, 6]: 22,239
- Total Cells per Lymph Node ([2]; 20 μl of 0.5 mM in HBSS injected at two sites in abdominal skin, dibutyl phthalate and acetone topically 2 hours later, two days later): 1.1 × 10^7
- Dendritic Cells per Lymph Node [2, 7]: 162,628
- K^b:SIINFEKL^+ DC per LymphNode [2, 7]: 89,598
- Enhancement ([2]; K^b:SIINFEKL+ DC versus HBSS injection): 44×
- Enhancement ([2]; SIINFEKL alone (reference)): 1×
- increase in the total number of dendritic cells per lymph node ([2]; SIINFEKL injection followed by topical migration/maturation inducer versus without): 18.5 fold
- increase in antigen-bearing dendritic cells per lymph node ([2]; SIINFEKL injection with versus without migration/maturation inducer): 44 fold
- Median No. of Complexes/Cell [2, 8]: 860 complexes/cell
- Median Specific Fl. Intensity [2, 8]: 43
- increase in the number of antigen-bearing dendritic cells in the draining lymph nodes ([2]; injection followed by topical induction of migration, two days later): 44 fold

From US7229621B2, “Method to enhance the immunogenicity of an antigen” (Torrey Pines Institute for Molecular Studies, priority 1998, dated 2007)
